# Results as given in patent US20220274967A1, “BCAT MODULATION” (Icagen, LLC, priority 2019, published 2022).
# How the values were obtained:
# BCAT1 = molecular target: T1, BCAT1 (Homo sapiens, UniProt P54687); experiment: BCAT1 enzyme inhibition (human), Glutamate Glo luminescence; assay type: biochemical
# T1 sequence (P54687 1-386): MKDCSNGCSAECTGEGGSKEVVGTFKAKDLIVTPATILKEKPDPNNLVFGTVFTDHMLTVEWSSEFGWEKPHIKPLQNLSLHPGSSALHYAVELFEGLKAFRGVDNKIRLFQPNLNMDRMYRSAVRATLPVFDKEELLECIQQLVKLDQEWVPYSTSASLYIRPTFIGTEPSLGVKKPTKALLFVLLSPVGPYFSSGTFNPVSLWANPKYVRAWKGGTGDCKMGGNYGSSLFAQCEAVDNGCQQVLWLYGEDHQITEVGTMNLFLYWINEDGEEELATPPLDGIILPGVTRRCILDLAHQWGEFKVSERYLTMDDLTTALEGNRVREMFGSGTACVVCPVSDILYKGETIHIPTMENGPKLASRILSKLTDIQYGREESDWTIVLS
# Method in brief: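 BCAT1 enzyme (0.06 ug/ml final) was preincubated with compound (3-0.0001 μM, 0.3% DMSO) for 10 or 60 min at room temperature in 50 mM Tris/0.05% TWEEN-20. The reaction then ran 10 min with 300 μM L-leucine and 250 μM alpha-ketoglutaric acid, was acid-quenched, and glutamate was read by luminescence. IC50 came from a 4-parameter fit, normalized to 10 μM VS558CSA inhibition.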
# BCAT2 = molecular target: T2, BCAT2 (Homo sapiens, UniProt O15382); experiment: BCAT2 enzyme inhibition (human); assay type: biochemical
# T2 sequence (O15382 28-392): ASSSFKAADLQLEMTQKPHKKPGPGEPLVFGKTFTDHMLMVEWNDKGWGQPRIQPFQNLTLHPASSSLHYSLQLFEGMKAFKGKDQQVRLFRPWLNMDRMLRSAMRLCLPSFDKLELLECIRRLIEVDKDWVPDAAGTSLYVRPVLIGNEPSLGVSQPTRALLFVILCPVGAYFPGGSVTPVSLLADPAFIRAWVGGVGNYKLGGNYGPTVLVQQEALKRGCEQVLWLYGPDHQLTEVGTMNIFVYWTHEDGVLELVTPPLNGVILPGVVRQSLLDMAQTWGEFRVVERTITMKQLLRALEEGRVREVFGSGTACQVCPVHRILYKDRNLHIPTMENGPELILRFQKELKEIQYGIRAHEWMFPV
# Method in brief: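 Cell-free coupled fluorescent assay: human BCATm converts branched-chain amino acids and α-ketoglutarate to L-glutamate, which L-glutamate oxidase and HRP link to resorufin formation from Amplex Red; activity taken as reduced glutamate signal.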
Compound,IC50 (BCAT1) [nM],IC50 (BCAT2) [nM]
CNC(=O)c1cc2nc(-c3ccccc3F)n([C@H]3CCC[C@@H](NC(=O)c4ccc(Br)s4)C3)c2cc1F [Compound 207],< 100,< 100
CNC(=O)c1cc2nc(-c3ccccc3C)n([C@H]3CCC[C@@H](NC(=O)c4ccc(Br)s4)C3)c2cc1F [Compound 208],100 to 500,< 100
CNC(=O)c1ccc2c(c1)nc(-c1ccccc1C#N)n2[C@H]1CCC[C@@H](NC(=O)c2ccc(Br)s2)C1 [Compound 136],100 to 500,< 100
CNC(=O)c1cc2nc(-c3ccccn3)n([C@H]3CCC[C@@H](NC(=O)c4ccc(Br)s4)C3)c2cn1 [Compound 292],100 to 500,< 100
CNC(=O)c1ccc2c(c1)nc(-c1ccccc1F)n2[C@H]1CCC[C@@H](NC(=O)c2ccc(Br)s2)C1 [Compound 145],100 to 500,< 100
CNC(=O)c1ccc2c(c1)nc(-c1ccccc1C#N)n2[C@H]1CCC[C@@H](NC(=O)c2ccc(C#N)s2)C1 [Compound 139],100 to 500,< 100
CNC(=O)c1ccc2c(c1)nc(-c1ccccc1C=O)n2[C@H]1CCC[C@@H](NC(=O)c2ccc(Br)s2)C1 [Compound 161],100 to 500,< 100
CNC(=O)c1ccc2c(c1)nc(-c1cccc(F)c1O)n2[C@H]1CCC[C@@H](NC(=O)c2ccc(Br)s2)C1 [Compound 163],≥ 1000,< 100
CNC(=O)c1ccc2c(c1)nc(-c1ccccc1C#N)n2[C@H]1CCC[C@@H](NC(=O)c2ccc(Br)s2)C1 [Compound 137],< 100,< 100
CNC(=O)c1cc2nc(-c3ccccn3)n([C@H]3CCC[C@@H](NC(=O)c4ccc(Br)s4)C3)c2cc1F [Compound 155],100 to 500,< 100
CNC(=O)c1ccc2c(c1)nc(-c1ccccn1)n2[C@@H]1CCC[C@H](NC(=O)c2ccc(C#N)s2)C1 [Compound 112],≥ 1000,100 to 500
CNC(=O)c1ccc2c(c1)nc(-c1ccccc1C)n2[C@H]1CCC[C@@H](NC(=O)c2ccc(C#N)s2)C1 [Compound 134],≥ 1000,< 100
CNC(=O)c1ccc2c(c1)nc(-c1ccccc1C)n2[C@H]1CCC[C@@H](NC(=O)c2ccc(Br)s2)C1 [Compound 135],≥ 1000,< 100
CNC(=O)c1ccc2c(c1)nc(-c1ccccc1C#N)n2[C@H]1CCC[C@@H](NC(=O)c2ccc(C#N)s2)C1 [Compound 138],500 to 1000,< 100
COC(=O)c1ccc2c(c1)nc(-c1ccccn1)n2[C@@H]1CCC[C@H](NC(=O)c2ccc(Br)s2)C1 [Compound 109],≥ 1000,100 to 500
CNC(=O)c1cc2nc(-c3ccccc3C#N)n([C@H]3CCC[C@@H](NC(=O)c4ccc(Br)s4)C3)c2cc1F [Compound 157],< 100,< 100
C#Cc1ccccc1-c1nc2cc(C(=O)NC)ccc2n1[C@H]1CCC[C@@H](NC(=O)c2ccc(Br)s2)C1 [Compound 151],500 to 1000,< 100
CNC(=O)c1ccc2c(c1)nc(-c1cccc(F)c1)n2[C@H]1CCC[C@@H](NC(=O)c2ccc(Br)s2)C1 [Compound 154],≥ 1000,< 100
CNC(=O)c1ccc2c(c1)nc(-c1c(O)cccc1F)n2[C@H]1CCC[C@@H](NC(=O)c2ccc(Br)s2)C1 [Compound 184],100 to 500,< 100
COC(=O)c1cc2nc(-c3ccccn3)n([C@@H]3CCC[C@H](NC(=O)c4ccc(Br)s4)C3)c2cn1 [Compound 291],100 to 500,< 100
